{"source": "patent US12678412B2", "about": "“Substituted tolans for the modulation of microbial colonization” (BioMendics, LLC, priority 2017, dated 2026)", "key": {"[1]": {"test_system": "E. coli WP2 uvrA pKM101", "type": "cell-based", "conditions": "without metabolic activation", "protocol": "A series of dose range finding assays were performed with five bacterial strains, S. typhimurium TA97a, TA98, TA100, TA1535, and E. coli WP2 uvrA pKM101, with and without metabolic activation at three plates per dose. The following doses, along with positive and negative controls, were tested: 5000, 2500, 1250, 500, 250, 125, 50, 20, 10, 5, 2, 1, and 0.2 μg/plate. The plates were evaluated for toxicity (a decrease in plate counts with increasing dose and/or a visible thinning of the background lawn) and for precipitation of the test article. Metabolic activation was included in some samples by adding phenobarbital/benzoflavone-induced rat liver S9 fractions with cofactors (S9 mix). Prior to use, freshly thawed aliquots of rat liver S9 were mixed with a sterile cofactor mix. The S9 mix contains a 10% liver S9 concentration and was refrigerated or stored on ice until used. When testing with metabolic activation, the S9 mix was used in the assay tube in place of phosphate buffer.\nDosing formulations were prepared to deliver all doses in a constant volume of 0.1 mL. The highest dose was prepared from test article weighed to the nearest 0.1 mg and the remaining formulations were prepared as serial dilutions from the high dose stock formulation. Using a permanent marking pen or computer printed labels, assay plates were labeled with the project and study numbers and the date. Assay plates and tubes were labeled with a unique identifier, which was used to match the assay tubes with the properly identified minimal glucose agar plate.\nThe pre-incubation method was used to perform the assay. The assay mix consisted of 0.1 mL of the test article formulation or control article, 0.5 mL S9 mix or phosphate buffer, and 0.1 mL of bacterial culture. Assay tubes were incubated at 37±1° C. with gentle agitation for 20±1 minutes, then 2.0-2.5 mL top agar was added to the assay mix and the top agar/assay mix poured onto appropriately labeled minimal glucose agar plates. Once the top agar hardened, the plates were inverted and incubated at 37±1° C. for 48±2 hours. Plates were counted with the Sorcerer (v. 2.2)/Ames Study Manager (v. 1.2.4) system from Perceptive Instruments (Suffolk, UK). With this system, plate counts are automatically transferred from the plate imager (Sorcerer) to a Study Manager spreadsheet, and the data are stored in a secure manner on an Oracle database. Some plates were hand counted, e.g., if sample precipitate interferes with automatic counting or toxicity results in the formation of microcolonies, in which case, counts for these plates were entered into the spreadsheet manually. Plates were scored also with the extent of colonization by a post fix code."}, "[2]": {"test_system": "NEB 5 α competent E. coli", "test": "Bacterial colony forming assay (Examples 6-9)", "type": "cell-based", "conditions": "for Effect on E. coli colony count: PEG-400/HPβCD mixed into alcohol gel, FIG. 1; for Inhibition of E. coli growth: alcohol gel formulation, FIG. 2", "protocol": "NEB 5 α competent E. coli were retrieved from frozen cultures and grown overnight in a bacterial incubator at 37° C. Proliferating cultures of bacteria were used in a colony forming assay by adding 25 μL of bacteria from the overnight culture to 10 mL of fresh Lysogeny Broth (LB; Bertani, G. (2004). “Lysogeny at mid-twentieth century: P1, P2, and other experimental systems”. Journal of Bacteriology. 186 (3): 595-600. PMC 321500. PMID 14729683. doi:10.1128/JR.186.3.595-600.2004). 1 mL of this diluted bacteria was added to various dilutions of formulations of substituted tolan compounds as described in Table C, below and in charts of the corresponding Figures.\nOne mL of each formulation was mixed with 1 mL of diluted bacteria in LB and put onto agar plates. Alcohol gels were allowed to dry and incubated overnight for 16-18 hrs. Control plates consisted of 2 mL alcohol gel plus 1 mL diluted bacteria, resulting in a colony count of less than 10 colonies, a 1 mL alcohol gel plus 1 mL diluted bacteria, resulting in a partial lawn of bacteria (colonies were too close to count appropriately), 1 mL diluted bacteria alone, resulting in a full lawn of bacteria (no distinguishable colonies), and an appropriate dilution of PEG-400 and HPβCD into 1 mL of alcohol gel plus 1 mL diluted bacteria, resulting in a lawn of bacteria. Plate area was then selected and the Image J colony counter was used to obtain colony counts (Size (pixels squared) 5-1000 and circularity 0.5-1)."}, "[3]": {"test_system": "MRSA USA 400 biofilms", "test": "Cell death in an existing biofilm, DAPI/propidium iodide staining", "type": "cell-based, Staphylococcus aureus", "conditions": "24 h treatment; 0.008 mM to 0.125 mM; FIG. 15", "protocol": "For the treatment of MRSA USA 400 biofilms, the same 96 well plate assay procedure was used as described in the biofilm inhibition section above. However, the MRSA USA 400 inoculum (10^8 CFU/mL) grew overnight at 37° C. in the absence of BM3103 and without shaking. After 24 h of biofilm formation, BM3103 was serially diluted across a 96 well plate from of 1 mM to 0.002 mM. The plate was incubated again overnight at 37° C. without shaking.\nIn order to confirm that treatment with BM3103 induced MRSA USA 400 bacterial cell death in the existing biofilm, both untreated cells and cells treated with BM3103 were stained with a combination of DAPI (nuclear stain) and Propidium iodide (PI, Live dead stain) as described in Example 15. MRSA USA 400 were plated in a well plate at 10^8 CFU/mL in combination with BM3103 treatment or no treatment. Plates were placed at 37° C. for 24 h. Bacteria cells were co-stained with DAPI and PI at 50 μg/mL and 500 μg/mL, respectively, for 15 min at room temperature. Wells were washed with warmed phosphate buffered saline (PBS) and maintained in PBS throughout the imaging acquisition process. Images were captured using the same exposure limits for each filter. […] Concentrations above 0.125 mM gave a similar result."}}, "note": "Where two headings read alike, the source gives them in different places.", "data": [{"smiles": "COc1ccc(C#Cc2ccc(O)cc2)cc1", "note": "[BM3103, 4-hydroxy-4′-methoxytolan]", "values": [{"measurement": "Colony forming units/plate", "setting": "[1]; 20 μg/plate", "value": "138.0 colony forming units/plate"}, {"measurement": "Individual colony counts", "setting": "[1]; 20 μg/plate", "value": 138}, {"measurement": "Colony forming units/plate", "setting": "[1]; 50 μg/plate", "value": "14.0 colony forming units/plate"}, {"measurement": "Individual colony counts", "setting": "[1]; 50 μg/plate", "value": 14}, {"measurement": "Colony forming units/plate", "setting": "[1]; 125 μg/plate", "value": "0.0 colony forming units/plate"}, {"measurement": "Individual colony counts", "setting": "[1]; 125 μg/plate", "value": 0}, {"measurement": "Colony forming units/plate", "setting": "[1]; 250 μg/plate", "value": "0.0 colony forming units/plate"}, {"measurement": "Individual colony counts", "setting": "[1]; 250 μg/plate", "value": 0}, {"measurement": "Plate postfix code (individual colony counts)", "setting": "[1]; 250 μg/plate", "value": "A P"}, {"measurement": "Colony forming units/plate", "setting": "[1]; 500 μg/plate", "value": "0.0 colony forming units/plate"}, {"measurement": "Individual colony counts", "setting": "[1]; 500 μg/plate", "value": 0}, {"measurement": "Plate postfix code (individual colony counts)", "setting": "[1]; 500 μg/plate", "value": "A P"}, {"measurement": "Colony forming units/plate", "setting": "[1]; 1250 μg/plate", "value": "0.0 colony forming units/plate"}, {"measurement": "Individual colony counts", "setting": "[1]; 1250 μg/plate", "value": 0}, {"measurement": "Colony forming units/plate", "setting": "[1]; 2500 μg/plate", "value": "0.0 colony forming units/plate"}, {"measurement": "Individual colony counts", "setting": "[1]; 2500 μg/plate", "value": 0}, {"measurement": "Plate postfix code (individual colony counts)", "setting": "[1]; 2500 μg/plate", "value": "A P"}, {"measurement": "Colony forming units/plate", "setting": "[1]; 5000 μg/plate", "value": "0.0 colony forming units/plate"}, {"measurement": "Individual colony counts", "setting": "[1]; 5000 μg/plate", "value": 0}, {"measurement": "Plate postfix code (individual colony counts)", "setting": "[1]; 5000 μg/plate", "value": "A P"}, {"measurement": "Effect on E. coli colony count", "setting": "[2]; 280 μM (62.5 μg/mL) dilution", "value": "reduced the E. coli colony count considerably"}, {"measurement": "Effect on E. coli colony count", "setting": "[2]; 557 μM (125 μg/mL) dilution", "value": "reduced colonization even more"}, {"measurement": "Inhibition of E. coli growth", "setting": "[2]; 2.23 mM (500 μg/mL)", "value": "inhibited E. coli growth completely"}, {"measurement": "Inhibition of E. coli growth", "setting": "[2]; 4.45 mM (1000 μg/mL)", "value": "inhibited E. coli growth completely"}, {"measurement": "PI staining (cell death) in existing biofilm", "setting": "[3]", "value": "dose dependent increase in PI staining"}]}]}
